From patent US20260207572A1, “METHODS AND COMPOSITIONS FOR TREATMENT OF SUBJECTS WITH HEPATIC IMPAIRMENTS” (ELEVAR THERAPEUTICS, INC., priority 2022, published 2026)
Where two headings read alike, the source gives them in different places.

Test: Phase 1 single-dose plasma pharmacokinetics in subjects with normal hepatic function, mild or moderate hepatic impairment
Format: in vivo, human
Conditions: for Plasma concentration, Arithmetic Mean / Plasma concentration, Median: Predose; for AUC(0-t) / AUC(0-inf) / Cmax / Vd/F / half-life / Tmax / concentration at 0.5 h / concentration at 1 h / concentration at 2 h / concentration at 3 h / concentration at 4 h / concentration at 6 h / concentration at 8 h / concentration at 12 h / concentration at 16 h / concentration at 24 h / concentration at 36 h / concentration at 48 h: human, plasma, 200 mg
Source text: Patients: 27 subjects were enrolled within the following groups based on their Child-Pugh (CP) classification score: • Group 1: Matched-control healthy subjects with normal hepatic function; • Group 2: Subjects with mild hepatic impairment (CP Class A, score of 5 or 6); • Group 3: Subjects with moderate hepatic impairment (CP Class B, score of 7 to 9).
A parallel design strategy was adopted for the hepatic impairment groups. Each matched-control healthy subject (Group 1) was enrolled following the enrollment of a mild and/or moderate hepatic impairment subject and was demographically matched by age (±10 years), BMI (±20%), and sex to the enrolled hepatic impairment subject(s). Subjects with normal hepatic function were not matched to more than 1 hepatically-impaired subject within an impairment group; however, subjects with normal hepatic function could be matched to 1 subject from more than 1 hepatic impairment group.
Other noncompartmental parameters could be reported.
The paired t-test was performed separately for each hepatic impairment group and the corresponding matched healthy controls. Estimates of geometric mean ratios in primary PK parameters between each level of impaired hepatic function versus the matched healthy controls were presented along with the corresponding 90% confidence intervals (CIs) for the geometric mean ratios. The p-value assessing the difference between each impairment group and the healthy control group was presented.
The PK analysis was conducted by Covance Early Clinical Biometrics using WinNonlin Version 8.1.

[1] = Mild Hepatic Impairment, 200 mg single oral dose
[2] = Moderate Hepatic Impairment, 200 mg single oral dose
[3] = Normal Hepatic Function, 200 mg single oral dose
[4] = po, Mild Hepatic Impairment, 200 mg single oral dose, read-out: Plasma concentration, Arithmetic Mean
[5] = po, Mild Hepatic Impairment, 200 mg single oral dose, read-out: Plasma concentration, Geometric Mean
[6] = po, Mild Hepatic Impairment, 200 mg single oral dose, read-out: Plasma concentration, Median

## N#CC1(c2ccc(NC(=O)c3cccnc3NCc3ccncc3)cc2)CCCC1 [Rivoceranib, N-[4-(1-cyanocyclopentyl)phenyl]-2-{[(pyridin-4-yl)methyl]amino} pyridine-3-carboxamide]
[1]
  AUC0-∞, Geometric Mean: 2308.66 ng·h/mL
  CL/F, Arithmetic Mean: 103.183 L/h
  CL/F, Geometric Mean: 86.630 L/h
  CL/F, Median: 93.423 L/h
  Plasma concentration, Arithmetic Mean: 0.00 ng/mL
  Plasma concentration, Median: 0.00 ng/mL
[2]
  CL/F, Arithmetic Mean: 89.904 L/h
  CL/F, Geometric Mean: 81.335 L/h
  CL/F, Median: 77.251 L/h
  Plasma concentration, Arithmetic Mean: 0.00 ng/mL
  Plasma concentration, Median: 0.00 ng/mL
[3]
  CL/F, Arithmetic Mean: 68.404 L/h
  CL/F, Geometric Mean: 65.546 L/h
  CL/F, Median: 69.489 L/h
  Plasma concentration, Arithmetic Mean: 0.00 ng/mL
  Plasma concentration, Median: 0.00 ng/mL
oral, Mild vs Normal: Mild hepatic impairment, paired analysis, read-out: AUC0-t, Geometric Least Squares Mean, Test
  AUC(0-t): 2080 ng·h/mL
oral, Mild vs Normal: Mild hepatic impairment, paired analysis, read-out: AUC0-∞, Geometric Least Squares Mean, Test
  AUC(0-inf): 2520 ng·h/mL
oral, Mild vs Normal: Mild hepatic impairment, paired analysis, read-out: Cmax, Geometric Least Squares Mean, Test
  Cmax: 182 ng/mL
oral, Mild vs Normal: matched Normal hepatic function, paired analysis, read-out: AUC0-t, Geometric Least Squares Mean, Reference
  AUC(0-t): 2820 ng·h/mL
oral, Mild vs Normal: matched Normal hepatic function, paired analysis, read-out: AUC0-∞, Geometric Least Squares Mean, Reference
  AUC(0-inf): 3020 ng·h/mL
oral, Mild vs Normal: matched Normal hepatic function, paired analysis, read-out: Cmax, Geometric Least Squares Mean, Reference
  Cmax: 303 ng/mL
oral, Moderate vs Normal: Moderate hepatic impairment, paired analysis, read-out: AUC0-t, Geometric Least Squares Mean, Test
  AUC(0-t): 2380 ng·h/mL
oral, Moderate vs Normal: Moderate hepatic impairment, paired analysis, read-out: AUC0-∞, Geometric Least Squares Mean, Test
  AUC(0-inf): 2430 ng·h/mL
oral, Moderate vs Normal: Moderate hepatic impairment, paired analysis, read-out: Cmax, Geometric Least Squares Mean, Test
  Cmax: 210 ng/mL
oral, Moderate vs Normal: matched Normal hepatic function, paired analysis, read-out: AUC0-t, Geometric Least Squares Mean, Reference
  AUC(0-t): 2550 ng·h/mL
oral, Moderate vs Normal: matched Normal hepatic function, paired analysis, read-out: AUC0-∞, Geometric Least Squares Mean, Reference
  AUC(0-inf): 2980 ng·h/mL
oral, Moderate vs Normal: matched Normal hepatic function, paired analysis, read-out: Cmax, Geometric Least Squares Mean, Reference
  Cmax: 247 ng/mL
po, Mild Hepatic Impairment, 200 mg single oral dose, read-out: AUC0-t, Arithmetic Mean
  AUC(0-t): 2550 ng·h/mL
po, Mild Hepatic Impairment, 200 mg single oral dose, read-out: AUC0-t, Geometric Mean
  AUC(0-t): 2070 ng·h/mL
po, Mild Hepatic Impairment, 200 mg single oral dose, read-out: AUC0-t, Median
  AUC(0-t): 1940 ng·h/mL
po, Mild Hepatic Impairment, 200 mg single oral dose, read-out: AUC0-∞, Arithmetic Mean
  AUC(0-inf): 2840 ng·h/mL
po, Mild Hepatic Impairment, 200 mg single oral dose, read-out: AUC0-∞, Geometric Mean
  AUC(0-inf): 2310 ng·h/mL
po, Mild Hepatic Impairment, 200 mg single oral dose, read-out: AUC0-∞, Median
  AUC(0-inf): 2140 ng·h/mL
po, Mild Hepatic Impairment, 200 mg single oral dose, read-out: Cmax, Arithmetic Mean
  Cmax: 291 ng/mL
po, Mild Hepatic Impairment, 200 mg single oral dose, read-out: Cmax, Geometric Mean
  Cmax: 182 ng/mL
po, Mild Hepatic Impairment, 200 mg single oral dose, read-out: Cmax, Median
  Cmax: 202 ng/mL
po, Mild Hepatic Impairment, 200 mg single oral dose, read-out: VZ/F, Arithmetic Mean
  Vd/F: 1830 L
po, Mild Hepatic Impairment, 200 mg single oral dose, read-out: VZ/F, Geometric Mean
  Vd/F: 1400 L
po, Mild Hepatic Impairment, 200 mg single oral dose, read-out: VZ/F, Median
  Vd/F: 1100 L
po, Mild Hepatic Impairment, 200 mg single oral dose, read-out: t1/2, Arithmetic Mean (converted)
  half-life: 13.3 ± 5.58 h
po, Mild Hepatic Impairment, 200 mg single oral dose, read-out: t1/2, Geometric Mean (converted)
  half-life: 12.4 h
po, Mild Hepatic Impairment, 200 mg single oral dose, read-out: t1/2, Median (converted)
  half-life: 12.3 h
po, Mild Hepatic Impairment, 200 mg single oral dose, read-out: tmax, Arithmetic Mean
  Tmax: 3.6 h
po, Mild Hepatic Impairment, 200 mg single oral dose, read-out: tmax, Geometric Mean
  Tmax: 2.8 h
po, Mild Hepatic Impairment, 200 mg single oral dose, read-out: tmax, Median
  Tmax: 2.5 h
[4]
  concentration at 0.5 h: 41.5 ng/mL
  concentration at 1 h: 178 ng/mL
  concentration at 2 h: 279 ng/mL
  concentration at 3 h: 220 ng/mL
  concentration at 4 h: 164 ng/mL
  concentration at 6 h: 122 ng/mL
  concentration at 8 h: 96 ng/mL
  concentration at 12 h: 66.6 ng/mL
  concentration at 16 h: 54.3 ng/mL
  concentration at 24 h: 34.5 ng/mL
  concentration at 36 h: 16.1 ng/mL
  concentration at 48 h: 8.5 ng/mL
[5]
  concentration at 0.5 h: 29.4 ng/mL
  concentration at 1 h: 112 ng/mL
  concentration at 2 h: 165 ng/mL
  concentration at 3 h: 138 ng/mL
  concentration at 4 h: 112 ng/mL
  concentration at 6 h: 95.4 ng/mL
  concentration at 8 h: 77.8 ng/mL
  concentration at 12 h: 54.9 ng/mL
  concentration at 16 h: 45.3 ng/mL
  concentration at 24 h: 29 ng/mL
  concentration at 36 h: 15.2 ng/mL
  concentration at 48 h: 9.97 ng/mL
[6]
  concentration at 0.5 h: 30.2 ng/mL
  concentration at 1 h: 149 ng/mL
  concentration at 2 h: 194 ng/mL
  concentration at 3 h: 155 ng/mL
  concentration at 4 h: 95.8 ng/mL
  concentration at 6 h: 91.3 ng/mL
  concentration at 8 h: 68.5 ng/mL
  concentration at 12 h: 43.9 ng/mL
  concentration at 16 h: 39.6 ng/mL
  concentration at 24 h: 26 ng/mL
  concentration at 36 h: 13.8 ng/mL
  concentration at 48 h: 7.26 ng/mL
po, Moderate Hepatic Impairment, 200 mg single oral dose, read-out: AUC0-t, Arithmetic Mean
  AUC(0-t): 2590 ng·h/mL
po, Moderate Hepatic Impairment, 200 mg single oral dose, read-out: AUC0-t, Geometric Mean
  AUC(0-t): 2380 ng·h/mL
po, Moderate Hepatic Impairment, 200 mg single oral dose, read-out: AUC0-t, Median
  AUC(0-t): 2450 ng·h/mL
po, Moderate Hepatic Impairment, 200 mg single oral dose, read-out: AUC0-∞, Arithmetic Mean
  AUC(0-inf): 2660 ng·h/mL
po, Moderate Hepatic Impairment, 200 mg single oral dose, read-out: AUC0-∞, Geometric Mean
  AUC(0-inf): 2460 ng·h/mL
po, Moderate Hepatic Impairment, 200 mg single oral dose, read-out: AUC0-∞, Median
  AUC(0-inf): 2590 ng·h/mL
po, Moderate Hepatic Impairment, 200 mg single oral dose, read-out: Cmax, Arithmetic Mean
  Cmax: 239 ng/mL
po, Moderate Hepatic Impairment, 200 mg single oral dose, read-out: Cmax, Geometric Mean
  Cmax: 210 ng/mL
po, Moderate Hepatic Impairment, 200 mg single oral dose, read-out: Cmax, Median
  Cmax: 180 ng/mL
po, Moderate Hepatic Impairment, 200 mg single oral dose, read-out: VZ/F, Arithmetic Mean
  Vd/F: 2250 L
po, Moderate Hepatic Impairment, 200 mg single oral dose, read-out: VZ/F, Geometric Mean
  Vd/F: 2020 L
po, Moderate Hepatic Impairment, 200 mg single oral dose, read-out: VZ/F, Median
  Vd/F: 2090 L
po, Moderate Hepatic Impairment, 200 mg single oral dose, read-out: t1/2, Arithmetic Mean (converted)
  half-life: 18.7 ± 3.97 h
